Results: patent publication US20240390369A1, “METHODS FOR DETERMINING RESPONSIVENESS TO TYK2 INHIBITORS” (Bristol-Myers Squibb Company, priority 2021, published 2024)

Test system: patients with psoriatic arthritis
Test: Phase 2 trial in psoriatic arthritis: PASI75 response at week 16
Format: in vivo, human
Details: for Interaction Term for PASI75 response (ratio of odds ratios): week 16
Experimental: In a double-blind Phase 2 trial, 203 patients with psoriatic arthritis were randomized into three groups: deucravacitinib 6 mg once daily (N=70), deucravacitinib 12 mg once daily (N=67), or placebo (N=66). All subjects had active psoriatic arthritis according to the Classification Criteria for Psoriatic Arthritis (CASPAR); for active disease, these criteria required ≥3 tender joint count, ≥3 swollen joint count, and a C-reactive protein level above 3 mg/L. Other inclusion criteria included the following: presence of at least one plaque psoriasis lesion, and prior treatment failure with a non-biologic disease modifying anti-rheumatic drug, a non-steroidal anti-inflammatory drug, or a steroid. With respect to treatment history, approximately 70% of subjects had not received prior treatment with a biologic and were biologic naïve, while up to 30% of subjects had failed or had been intolerant to one TNF-inhibitor (TNF=Tumor necrosis factor, also known as TNFα). Randomization was stratified by prior TNF-inhibitor use (experienced/naïve) and body weight (<90 kg and ≥90 kg).
Clinical measures included the Psoriasis […] (PASI) score for skin psoriasis, American College of Rheumatology 20 (ACR20) response, Psoriatic Arthritis Disease Activity Score (PASDAS), Health Assessment Questionnaire-Disability Index (HAQ-DI), and Disease Activity Score 28 CRP (DAS28). To evaluate the predictive value of different protein measurements for the clinical response to deucravacitinib, baseline protein concentrations for responders and non-responders, as defined by ACR20 or PASI75 at week 16, were compared for each arm (placebo, 6 mg deucravacitinib once-daily, and 12 mg deucravacitinib once-daily).
In addition, a logistic regression model was fit, to determine whether baseline disease score (dichotomized by the median baseline score, into baseline score high and baseline score low groups) was associated with response status. The model generated an odds ratio for each dosed arm versus placebo, in baseline score high and baseline score low groups.
Boxplots for baseline protein level by response were generated with a horizontal line indicating the median protein level at baseline. For each treatment arm, a two-sample t-test was performed to test whether mean baseline serum protein level was different in responders versus non-responders. A Wilcoxon rank sum test (Mann-Whitney U test) was also performed to evaluate the difference in median serum protein level between responders and non-responders. Further, barplots of ACR20 and PASI75 response rate at week 16 for each treatment arm were generated for all subjects (protein level high and protein level low subjects, dichotomized according to median baseline level). Line plots of ACR20 and PASI75 response rate over time for each treatment arm were generated for protein level high and protein level low groups. Logistic regression models were also fit to evaluate associations between baseline protein levels and clinical outcome.
For certain analyses described herein, patients were dichotomized by median values (e.g., of the proteins listed above or other measures) into “high” and “low” groups, such that the high group had values above the median and the low group had values less than or equal to the median.
In addition, logistic regression models were fit for response measures ACR20 and PASI75, to generate the odds ratio of each of the deucravacitinib treatment arms versus placebo, in BD2-high and BD2-low groups. The following logistic regression models were used: • For ACR20 response status: ACR20 (Y/N)=treatment arm+BD2 group+treatment arm*BD2 group+TNF-inhibitor use+baseline weight (continuous). • For PASI75 response status: PASI75 (Y/N)=treatment arm+BD2 group+treatment arm*BD2 group+TNF-inhibitor use+baseline weight (continuous). […]

[1] = 12 mg QD, Above median baseline CRP level
[2] = 12 mg QD, Below median baseline CRP level

**Q.** What does the source list for `[2H]C([2H])([2H])NC(=O)c1nnc(NC(=O)C2CC2)cc1Nc1cccc(-c2ncn(C)n2)c1OC` [deucravacitinib, 6-(cyclopropanecarboxamido)-4-((2-methoxy-3-(1-methyl-1H-1,2,4-triazol-3-yl)phenyl)amino)-N-(methyl-d3)pyridazine-3-carboxamide]?
**A.** Number of subjects (6 mg QD, PASI75 responder, BD2-high-PASI-low): 4; Number of subjects (6 mg QD, PASI75 responder, BD2-low-PASI-high): 2; Number of subjects (6 mg QD, PASI75 responder, BD2-low-PASI-low): 5; Number of subjects (6 mg QD, PASI75 responder, IL-17A-high-PASI-high): 12; Number of subjects (6 mg QD, PASI75 responder, IL-17A-high-PASI-low): 7; Number of subjects (6 mg QD, PASI75 responder, IL-17A-low-PASI-high): 4; Number of subjects (6 mg QD, PASI75 responder, IL-17A-low-PASI-low): 2; Number of subjects (6 mg QD, PASI75 responder, IL-19-high-PASI-high): 13; Number of subjects (6 mg QD, PASI75 responder, IL-19-high-PASI-low): 6; Number of subjects (6 mg QD, PASI75 responder, IL-19-low-PASI-high): 3; Number of subjects (6 mg QD, PASI75 responder, IL-19-low-PASI-low): 3; Interaction Term for PASI75 response (ratio of odds ratios) (12 mg QD vs placebo: BD2 high versus BD2 low): 14.233; Interaction Term: treatment arm*CRP group, PASI75 (12 mg QD vs placebo: CRP high versus CRP low): 2.63; Interaction Term: treatment arm*CRP group, PASI75 (12 mg QD vs placebo: CRP-high versus CRP-low, adjusted for baseline PASI score): 3.18; Interaction Term: treatment arm*IL-17A group, PASI75 (12 mg QD vs placebo: IL-17A high versus IL-17A low, adjusted for baseline PASI score): 13.222; Interaction Term for PASI75 response (ratio of odds ratios) (12 mg QD vs placebo: IL-17A high versus IL-17A low): 12.089; Interaction Term for PASI75 response (ratio of odds ratios) (12 mg QD vs placebo: baseline PASI high versus PASI low): 6.42; Number of subjects, PASI75 Non-responder at week 16 [1]: 7; Number of subjects, PASI75 Responder at week 16 [1]: 18; Number of subjects, PASI75 Non-responder at week 16 [2]: 14; Number of subjects, PASI75 Responder at week 16 [2]: 13; Number of subjects, PASI75 Non-responder (12 mg QD, CRP-high-PASI-high): 4; Number of subjects, PASI75 Responder (12 mg QD, CRP-high-PASI-high): 10; Number of subjects, PASI75 Non-responder (12 mg QD, CRP-high-PASI-low): 3; Number of subjects, PASI75 Responder (12 mg QD, CRP-high-PASI-low): 8; Number of subjects, PASI75 Non-responder (12 mg QD, CRP-low-PASI-high): 2; Number of subjects, PASI75 Responder (12 mg QD, CRP-low-PASI-high): 10; Number of subjects, PASI75 Non-responder (12 mg QD, CRP-low-PASI-low): 12; Number of subjects, PASI75 Responder (12 mg QD, CRP-low-PASI-low): 3; Number of subjects (12 mg QD, PASI75 non-responder at week 16, above baseline PASI median 6.6): 6; Number of subjects (12 mg QD, PASI75 non-responder at week 16, above median baseline BD2 level): 11; Number of subjects (12 mg QD, PASI75 non-responder at week 16, above median baseline IL-17A level): 8; Number of subjects (12 mg QD, PASI75 non-responder at week 16, above median baseline IL-19 level): 6; Number of subjects (12 mg QD, PASI75 non-responder at week 16, below baseline PASI median 6.6): 15; Number of subjects (12 mg QD, PASI75 non-responder at week 16, below median baseline BD2 level): 13; Number of subjects (12 mg QD, PASI75 non-responder at week 16, below median baseline IL-17A level): 13; Number of subjects (12 mg QD, PASI75 non-responder at week 16, below median baseline IL-19 level): 14; Number of subjects (12 mg QD, PASI75 non-responder, BD2-high-PASI-high): 5; Number of subjects (12 mg QD, PASI75 non-responder, BD2-high-PASI-low): 5; Number of subjects (12 mg QD, PASI75 non-responder, BD2-low-PASI-high): 1; Number of subjects (12 mg QD, PASI75 non-responder, BD2-low-PASI-low): 10; Number of subjects (12 mg QD, PASI75 non-responder, IL-17A-high-PASI-high): 5; Number of subjects (12 mg QD, PASI75 non-responder, IL-17A-high-PASI-low): 3; Number of subjects (12 mg QD, PASI75 non-responder, IL-17A-low-PASI-high): 1; Number of subjects (12 mg QD, PASI75 non-responder, IL-17A-low-PASI-low): 12; Number of subjects (12 mg QD, PASI75 non-responder, IL-19-high-PASI-high): 3; Number of subjects (12 mg QD, PASI75 non-responder, IL-19-high-PASI-low): 3; Number of subjects (12 mg QD, PASI75 non-responder, IL-19-low-PASI-high): 2; Number of subjects (12 mg QD, PASI75 non-responder, IL-19-low-PASI-low): 12; Number of subjects (12 mg QD, PASI75 responder at week 16, above baseline PASI median 6.6): 20; Number of subjects (12 mg QD, PASI75 responder at week 16, above median baseline BD2 level): 23; Number of subjects (12 mg QD, PASI75 responder at week 16, above median baseline IL-17A level): 18
